From patent US20220370381A1 (priority 2016, published 2022)
Residue numbers refer to the chain shown, from its start. Where two headings read alike, the source gives them in different places.

Columns and labels:
[1] = target: Serotonin 5-HT2B (Human recombinant) (Homo sapiens, UniProt P41595); assay: Competitive radioligand binding assay, serotonin 5-HT2B
serotonin 5-HT1A = target: T1, serotonin 5-HT1A (Rattus norvegicus, UniProt P19327); assay: Competitive radioligand binding assay, serotonin 5-HT1A
T1 construct: serotonin 5-HT1A (rat cerebral cortex); from tissue; host or cells: rat cerebral cortex
T1 sequence (P19327 1-422): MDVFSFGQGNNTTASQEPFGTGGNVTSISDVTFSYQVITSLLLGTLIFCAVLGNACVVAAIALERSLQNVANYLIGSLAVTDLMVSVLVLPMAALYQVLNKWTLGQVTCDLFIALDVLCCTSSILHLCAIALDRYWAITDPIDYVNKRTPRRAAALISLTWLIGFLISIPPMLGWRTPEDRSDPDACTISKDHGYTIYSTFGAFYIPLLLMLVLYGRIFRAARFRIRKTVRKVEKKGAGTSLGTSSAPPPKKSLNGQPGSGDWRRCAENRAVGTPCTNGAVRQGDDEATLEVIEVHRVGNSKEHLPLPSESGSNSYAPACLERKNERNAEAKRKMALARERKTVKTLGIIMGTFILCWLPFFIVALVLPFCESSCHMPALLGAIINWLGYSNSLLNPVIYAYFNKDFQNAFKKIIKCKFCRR

Sigma 1 [2] = target: T2, Sigma 1 (Cavia porcellus, UniProt Q60492); assay: Sigma-1 receptor tissue bioassay, guinea pig vas deferens, agonist activity (twitch contraction); set-up: Segments of guinea pig vas deferens were suspended in 20-ml organ baths; from tissue; host or cells: guinea pig vas deferens; conditions: field-stimulated guinea pig vas deferens, compound alone
T2 sequence (Q60492 whole entry): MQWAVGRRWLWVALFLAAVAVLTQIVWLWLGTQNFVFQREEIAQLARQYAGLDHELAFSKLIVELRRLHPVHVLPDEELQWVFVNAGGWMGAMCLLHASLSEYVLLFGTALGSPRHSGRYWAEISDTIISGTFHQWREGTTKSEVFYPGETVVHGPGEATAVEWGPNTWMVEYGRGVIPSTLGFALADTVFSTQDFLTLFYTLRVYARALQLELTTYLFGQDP

[3] = target: T3, human β-2 adrenergic receptor (Homo sapiens, UniProt P07550); assay: β-2 adrenergic receptor antagonist assay, agonist-induced cAMP production (HTRF); format: cell-based; set-up: expressed in transfected cells; host or cells: HEK-293; conditions: inhibition of isoproterenol-induced cAMP production
T3 sequence (P07550 whole entry): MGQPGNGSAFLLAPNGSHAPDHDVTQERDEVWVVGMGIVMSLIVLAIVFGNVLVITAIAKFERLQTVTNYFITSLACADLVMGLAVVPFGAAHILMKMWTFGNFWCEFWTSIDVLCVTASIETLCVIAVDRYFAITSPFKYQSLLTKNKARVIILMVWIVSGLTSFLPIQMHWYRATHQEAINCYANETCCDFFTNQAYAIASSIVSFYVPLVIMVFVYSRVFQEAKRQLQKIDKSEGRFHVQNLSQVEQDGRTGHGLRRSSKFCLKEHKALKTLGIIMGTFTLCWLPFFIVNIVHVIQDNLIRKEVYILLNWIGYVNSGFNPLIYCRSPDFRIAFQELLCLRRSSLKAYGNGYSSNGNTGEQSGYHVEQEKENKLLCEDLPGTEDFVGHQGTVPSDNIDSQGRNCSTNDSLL
Protocol: Transfected HEK-293 cells expressing human β-1 adrenergic receptor, human β-2 adrenergic receptor, and human β3 adrenergic receptor, respectively, were prepared using cloned human cDNA. See H FRIELLE, T., COLLINS, S., DANIEL, K. W., CARON, M. G., LEFKOWITZ, R. J., KOBILKA, B. K. (1987), Cloning of the cDNA for the human beta1-adrenergic receptor, Proc. Natl. Acad. Sci. U.S.A., 84,7920, and BAKER, J. G. (2005) The selectivity of Beta-adrenoreceptor antagonists at the human Beta1, Beta2 and Beta3 adrenoreceptor, Brit.
Transfected cells were suspended in HBSS buffer (Invitrogen) complemented with 20 mM HEPES (pH 7.4) and 500 μM IBMX. […] The cells were then distributed in 96 well microplates (see FIG. 15 for plating densities).
After plating, the cells were induced by adding reference agonist. See FIG. 15 for reference agonists and concentrations used for each assay. […] The cells were then incubated 30 minutes at room temperature.
Subsequently, the cells were lysed and a fluorescence acceptor (D2-labeled cAMP) and a fluorescence donor (anti-cAMP antibody labeled with europium cryptate) were added to the wells.
Standard reference antagonists were tested in each experiment at several concentrations to generate a concentration-response curve from which its IC50 value is calculated.
EC50 values (concentration producing a half-maximal response) and IC50 values (concentration causing a half-maximal inhibition of the control agonist response) were determined by non-linear regression analysis of the concentration-response curves generated with mean replicate values using Hill equation curve fitting: […]
For the antagonists, the apparent dissociation constants (KB) were calculated using the modified Cheng Prusoff equation:
KB=IC50/[1+(A/EC50A)], where

[4] = target: T4, Human muscarinic M1 receptor (Homo sapiens, UniProt P11229); format: cell-based; conditions: acetylcholine-induced Ca2+ mobilization, CHO cells
T4 construct: expressed in transfected cells; host or cells: CHO
T4 sequence (P11229 1-460): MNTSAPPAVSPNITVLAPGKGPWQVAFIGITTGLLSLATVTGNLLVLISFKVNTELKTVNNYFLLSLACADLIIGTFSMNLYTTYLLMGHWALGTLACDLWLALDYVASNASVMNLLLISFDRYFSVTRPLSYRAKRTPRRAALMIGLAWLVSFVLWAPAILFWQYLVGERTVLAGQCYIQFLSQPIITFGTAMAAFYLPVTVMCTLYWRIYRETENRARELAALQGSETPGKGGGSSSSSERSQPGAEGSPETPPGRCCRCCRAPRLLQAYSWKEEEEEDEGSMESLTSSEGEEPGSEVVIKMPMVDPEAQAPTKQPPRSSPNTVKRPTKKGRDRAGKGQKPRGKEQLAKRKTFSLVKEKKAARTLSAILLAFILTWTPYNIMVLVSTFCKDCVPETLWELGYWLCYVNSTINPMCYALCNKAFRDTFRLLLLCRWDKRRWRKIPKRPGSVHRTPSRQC
Protocol: After plating, a fluorescent probe (Fluo4 NW, Invitrogen), mixed with probenicid in HBSS buffer (Invitrogen) complemented with 20 mM Hepes (Invitrogen) (pH 7.4), was added into each well and equilibrated with the cells for 60 min at 37° C., followed by a second incubation for 15 min at 22° C.
Thereafter, the assay plates were positioned in a microplate reader (CellLux, PerkinElmer). After a 5-min incubation, 3 nM acetylcholine was added to all except the basal control wells to a total reaction volume of 100 uL, and changes in fluorescence intensity which vary proportionally to the free cytosolic Ca2+ ion concentration, were measured.
The stock solutions were then diluted to [10×] in HBSS and 0.1% BSA just prior to use. Maximum tolerable DMSO concentration was 0.3%.

Swiss OF-1 mice [5] = conditions: female BKTO mice, O'Neill & Conway (2001); cited from earlier work
rats = conditions: cited from earlier work
Swiss OF-1 mice [6] = assay: Forced swim test (FST) in mice; conditions: acute IP injection, lower doses not active
hNav1.5 = hNav1.5 (Homo sapiens, UniProt Q14524); assay: Ion channel profiling, IonFlux HT automated patch clamp, hNav1.5
Sequence of hNav1.5 (Q14524 whole entry): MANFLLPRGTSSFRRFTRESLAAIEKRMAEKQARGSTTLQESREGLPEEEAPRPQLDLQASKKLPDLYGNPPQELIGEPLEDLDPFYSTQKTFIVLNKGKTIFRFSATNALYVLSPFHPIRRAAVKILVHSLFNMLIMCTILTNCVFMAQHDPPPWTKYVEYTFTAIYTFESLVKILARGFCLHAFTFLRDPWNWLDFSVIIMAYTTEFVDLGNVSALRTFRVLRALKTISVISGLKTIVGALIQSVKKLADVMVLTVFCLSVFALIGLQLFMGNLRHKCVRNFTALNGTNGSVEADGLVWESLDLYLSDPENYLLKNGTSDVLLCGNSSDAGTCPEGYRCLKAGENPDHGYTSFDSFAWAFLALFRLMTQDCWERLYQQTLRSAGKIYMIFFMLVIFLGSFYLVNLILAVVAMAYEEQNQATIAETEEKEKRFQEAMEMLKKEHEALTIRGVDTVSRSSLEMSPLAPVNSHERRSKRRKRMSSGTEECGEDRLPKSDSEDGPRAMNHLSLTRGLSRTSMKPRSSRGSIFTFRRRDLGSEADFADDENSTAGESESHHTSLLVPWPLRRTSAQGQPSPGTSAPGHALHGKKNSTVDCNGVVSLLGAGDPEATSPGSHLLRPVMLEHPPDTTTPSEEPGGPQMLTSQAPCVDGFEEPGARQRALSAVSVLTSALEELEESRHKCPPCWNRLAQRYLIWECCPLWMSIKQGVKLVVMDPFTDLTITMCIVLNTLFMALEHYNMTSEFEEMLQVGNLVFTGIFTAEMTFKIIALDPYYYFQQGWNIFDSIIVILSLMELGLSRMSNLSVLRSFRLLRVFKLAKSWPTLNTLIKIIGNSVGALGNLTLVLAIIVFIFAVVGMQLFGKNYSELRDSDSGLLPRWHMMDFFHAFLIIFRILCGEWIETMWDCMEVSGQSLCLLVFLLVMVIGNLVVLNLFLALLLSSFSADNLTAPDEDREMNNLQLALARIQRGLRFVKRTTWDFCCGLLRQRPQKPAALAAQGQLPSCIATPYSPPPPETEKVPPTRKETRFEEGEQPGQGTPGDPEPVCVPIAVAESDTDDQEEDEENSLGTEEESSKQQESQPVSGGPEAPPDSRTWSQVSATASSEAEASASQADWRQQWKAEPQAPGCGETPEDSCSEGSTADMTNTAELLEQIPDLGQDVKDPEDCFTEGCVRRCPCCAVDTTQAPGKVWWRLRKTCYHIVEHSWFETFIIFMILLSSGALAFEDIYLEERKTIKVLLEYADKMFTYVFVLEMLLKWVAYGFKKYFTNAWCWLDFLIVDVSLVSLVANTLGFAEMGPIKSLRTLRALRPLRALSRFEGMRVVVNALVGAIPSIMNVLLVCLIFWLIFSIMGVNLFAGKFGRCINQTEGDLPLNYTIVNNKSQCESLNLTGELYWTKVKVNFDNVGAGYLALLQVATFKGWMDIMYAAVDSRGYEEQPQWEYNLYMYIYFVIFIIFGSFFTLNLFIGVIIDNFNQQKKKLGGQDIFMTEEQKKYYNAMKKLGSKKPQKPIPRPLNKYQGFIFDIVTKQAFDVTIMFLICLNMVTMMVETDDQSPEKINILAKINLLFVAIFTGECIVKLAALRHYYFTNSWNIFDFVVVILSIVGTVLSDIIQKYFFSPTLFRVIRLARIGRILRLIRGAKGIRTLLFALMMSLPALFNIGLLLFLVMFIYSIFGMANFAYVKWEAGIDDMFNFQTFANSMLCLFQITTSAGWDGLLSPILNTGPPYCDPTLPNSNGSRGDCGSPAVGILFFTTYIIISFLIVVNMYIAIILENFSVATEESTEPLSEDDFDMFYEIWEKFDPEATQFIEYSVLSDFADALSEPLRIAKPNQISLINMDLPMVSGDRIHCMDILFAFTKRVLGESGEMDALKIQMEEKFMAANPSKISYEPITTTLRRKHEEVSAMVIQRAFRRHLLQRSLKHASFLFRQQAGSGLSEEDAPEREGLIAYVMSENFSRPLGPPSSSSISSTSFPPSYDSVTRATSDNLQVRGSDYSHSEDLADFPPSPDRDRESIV

[7] = target: Serotonin 5-HT7 (Human recombinant) (Homo sapiens, UniProt P34969); assay: Competitive radioligand binding assay, serotonin 5-HT7
Sequence of Serotonin 5-HT7 (Human recombinant) (P34969 whole entry): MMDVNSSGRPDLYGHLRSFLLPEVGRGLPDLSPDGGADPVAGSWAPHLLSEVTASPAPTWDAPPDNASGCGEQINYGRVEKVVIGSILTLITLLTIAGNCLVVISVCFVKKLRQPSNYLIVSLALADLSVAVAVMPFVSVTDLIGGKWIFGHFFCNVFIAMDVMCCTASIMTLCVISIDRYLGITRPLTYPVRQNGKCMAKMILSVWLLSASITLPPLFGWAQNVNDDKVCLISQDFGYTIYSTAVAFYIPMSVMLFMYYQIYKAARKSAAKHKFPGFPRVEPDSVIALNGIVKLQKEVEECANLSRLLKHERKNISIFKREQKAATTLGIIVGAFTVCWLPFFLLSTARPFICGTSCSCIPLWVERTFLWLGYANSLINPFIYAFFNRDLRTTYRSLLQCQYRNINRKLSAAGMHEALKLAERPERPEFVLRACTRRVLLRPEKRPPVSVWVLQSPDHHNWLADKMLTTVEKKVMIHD

Sigma 1 [8] = target: T2, Sigma 1; assay: Competitive radioligand binding assay, Sigma 1; set-up: species or system Guinea pig
Swiss OF-1 mice [9] = assay: Step-through passive avoidance, dizocilpine-induced deficit; format: in vivo, mouse; conditions: IP; 0.1 mg/kg not active
Swiss OF-1 mice [10] = assay: Spontaneous alternation in the Y-maze, dizocilpine-induced deficit; format: in vivo, mouse; conditions: IP; 0.1 mg/kg not active
DBA/1 mice = conditions: comparator value, no test described; cited from earlier work
Na channel = test system: T5, Na channel; assay: Competitive radioligand binding assay, Na channel; set-up: species or system Rat
T5 construct: other: test article 1×10^−6 and 1×10^−5 mol/L; rat brain

Sigma non-selective = assay: Competitive radioligand binding assay, sigma non-selective; set-up: species or system Guinea pig
[11] = test system: T6, β-Adrenergic (Non-selective); assay: Competitive radioligand binding assay, β-adrenergic (non-selective); set-up: species or system Rat
T6 construct: β-1 adrenergic; other: test article 1×10^−6 and 1×10^−5 mol/L; rat brain

Sigma 1 [12] = target: T2, Sigma 1; assay: Sigma-1 receptor tissue bioassay, guinea pig vas deferens, antagonist activity ((+)SKF-10047-induced response); set-up: Segments of guinea pig vas deferens were suspended in 20-ml organ baths; from tissue; host or cells: guinea pig vas deferens; conditions: field-stimulated guinea pig vas deferens, (+)SKF-10047 100 μM
[13] = target: T3, human β-2 adrenergic receptor; assay: Competitive radioligand binding assay, β2-adrenergic
Muscarinic M1 = target: T7, Muscarinic M1 (Rattus norvegicus, UniProt P08482); assay: Competitive radioligand binding assay, muscarinic M1
T7 construct: Muscarinic M1 (Rat cerebral cortex); from tissue; host or cells: rat cerebral cortex
T7 sequence (P08482 1-460): T4 sequence (P11229 1-460) with A5V, T254S, P309S, R320K, A337G, I413V

[14] = Example 3, Ki=IC50/(1+L/Kd), IC50 expressed in mol/L, read-out: Ki, 5-HT1A
[15] = Example 2, seven concentrations
[16] = test article 1×10^−6 and 1×10^−5 mol/L, rat brain
[17] = test article 1×10^−6 and 1×10^−5 mol/L, rat cerebral cortex

Sequence of Serotonin 5-HT2B (Human recombinant) (P41595 whole entry): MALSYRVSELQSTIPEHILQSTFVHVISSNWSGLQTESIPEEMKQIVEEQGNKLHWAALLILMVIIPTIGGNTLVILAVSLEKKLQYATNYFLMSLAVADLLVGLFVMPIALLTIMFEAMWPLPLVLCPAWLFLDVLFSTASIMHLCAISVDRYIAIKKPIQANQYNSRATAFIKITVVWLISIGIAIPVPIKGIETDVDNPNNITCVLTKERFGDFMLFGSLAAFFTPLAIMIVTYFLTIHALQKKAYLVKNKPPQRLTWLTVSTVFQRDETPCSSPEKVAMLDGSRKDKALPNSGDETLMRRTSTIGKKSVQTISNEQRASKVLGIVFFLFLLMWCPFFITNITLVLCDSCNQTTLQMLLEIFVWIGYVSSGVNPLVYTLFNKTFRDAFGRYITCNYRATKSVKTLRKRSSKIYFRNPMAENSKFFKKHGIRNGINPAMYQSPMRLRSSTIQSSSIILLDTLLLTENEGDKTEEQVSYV

CC(N)Cc1cccc(C(F)(F)F)c1 (single isomer, unassigned; (+)) [(+)norfenfluramine]
Ki [1]: 242 nM | Ki (serotonin 5-HT1A; [14]): 1140 nM | effect on twitch contraction amplitude (Sigma 1 [2]): concentration-dependent decrease

CC(N)Cc1cccc(C(F)(F)F)c1 (single isomer, unassigned; (-)) [(−)norfenfluramine]
antagonist activity at the beta-2 adrenergic receptor [3]: antagonist activity | Ki [1]: 1200 nM | antagonist activity at the muscarinic M1 receptor [4]: some antagonist activity | Ki (serotonin 5-HT1A; [14]): 409 nM | effect on twitch contraction amplitude (Sigma 1 [2]): more complex behavior

CCN[C@@H](C)Cc1cccc(C(F)(F)F)c1 [(+)fenfluramine]
antagonist activity at the beta-2 adrenergic receptor [3]: antagonist activity

Br.CCCN(CCC)C1CCc2cccc(O)c2C1 (centres unmarked) [Compound 8-OH-DPAT, 7-(Dipropylamino)-5,6,7,8-tetrahydronaphthalen-1-ol hydrobromide]
active dose in forced swim test published previously (Swiss OF-1 mice [5]): 0.25 to 1 mg/kg | active dose in forced swim test published previously (rats; male CD-COBS rats, Cervo & Samanin (1987)): 0.25 to 0.5 mg/kg | active dose in forced swim test published previously (rats; male Sprague-Dawley rats, Singh & Lucki (1993)): 0.5 mg/kg | dose reducing immobility duration in the FST (Swiss OF-1 mice [6]): 3 mg/kg

CCN[C@@H](C)Cc1cccc(C(F)(F)F)c1 [Dexfenfluramine]
IC50 (hNav1.5): > 30000 nM | IC50 (serotonin 5-HT1A): 1290 nM | Ki (serotonin 5-HT1A): 711 nM | IC50 [7]: 7520 nM | Ki [7]: 7100 nM | IC50 (Sigma 1 [8]): 125 nM | Ki (Sigma 1 [8]): 109 nM

CC[C@@](C/C=C/c1ccccc1)(c1ccccc1)N(C)CC1CC1.Cl [Igmesine, (R)-(+)-N-Cyclopropylmethyl-α-ethyl-N-methyl-α-[(2E)-3-phenyl-2-propenyl)benzenemethanamine hydrochloride]
dose reducing immobility duration in the FST (Swiss OF-1 mice [6]): 30 mg/kg

Cl.O=C(OCCN1CCOCC1)C1(c2ccccc2)CCCCC1 [PRE-084, 2-(4-Morpholinethyl)-1-phenylcyclohexanecarboxylate hydrochloride]
dose attenuating dizocilpine-induced deficit in passive avoidance response (minimal active dose) (Swiss OF-1 mice [9]): 0.3 mg/kg | dose attenuating dizocilpine-induced deficit in spontaneous alternation (Swiss OF-1 mice [10]): 0.3 mg/kg

CNCCC(Oc1ccc(C(F)(F)F)cc1)c1ccccc1 (centres unmarked) [fluoxetine]
ED50, blockade of S-IRA (comparison value) (DBA/1 mice): 22.2 mg/kg

CC(N)Cc1cccc(C(F)(F)F)c1 (centres unmarked) [norfenfluramine]
activity at the Nav1.5 ion channel (hNav1.5; patch clamp, 0.37-30 μM): weak antagonist | binding relative to positive controls (Na channel; [15]): moderate binding | inhibition of receptor binding (tracer) (Na channel; [16]): significantly inhibit | binding relative to positive controls (Sigma non-selective; [15]): moderate binding | inhibition of receptor binding (tracer) (Sigma non-selective; test article 1×10^−6 and 1×10^−5 mol/L, guinea pig brain): significantly inhibit | antagonist activity at the beta-2 adrenergic receptor [3]: some antagonist activity | binding relative to positive controls ([11]; Example 2, seven concentrations, β-1 adrenergic): moderate binding | inhibition of receptor binding (tracer) [11, 16]: significantly inhibit | effect on the (+)SKF-10,047-induced increase in twitch contraction amplitude (Sigma 1 [12]): concentration-dependent inhibition | binding relative to positive controls (serotonin 5-HT1A; [15]): moderate binding | inhibition of receptor binding (tracer) (serotonin 5-HT1A; [17]): significantly inhibit | binding relative to positive controls [13, 15]: moderate binding | inhibition of receptor binding (tracer) ([13]; test article 1×10^−6 and 1×10^−5 mol/L, human recombinant): significantly inhibit | effect on twitch contraction amplitude (Sigma 1 [2]; listed as Racemic norfenfluramine): concentration-dependent decrease | binding relative to positive controls (Muscarinic M1; [15]): moderate binding | inhibition of receptor binding (tracer) (Muscarinic M1; [17]): significantly inhibit

C[C@@H]1CN(CCCn2c3ccccc3c3ccccc32)C[C@H](C)N1 [rimcazole]
effect on the (+)SKF-10,047-induced increase in twitch contraction amplitude (Sigma 1 [12]): inhibited
